The text below walks through data of US5770595A, “Oxime substituted therapeutic compounds” (Cell Therapeutics, Inc., priority 1994, dated 1998).

For one data set, the system named is L929 cells. The data set is described as follows: TNF-α-mediated cytotoxicity in L929 cells. Format: cell-based, murine. As to conditions: human TNF-α 300 pg/ml; FIG. 9. How it is done:
An inventive compound can be assayed for activity protecting TNF-mediated cytotoxicity. In this assay, L929 murine fibroblast cells (10^4 cells per well) are incubated with either compounds at varying doses and media control for two hrs. […] The cells plus (or minus) drug plus TNF were incubated for 40 hrs at 37° C. The media is removed and replaced with fresh media containing 2% serum and 10 μg/ml of BCECF fluorescent dye and incubated for 30 min. The fluorescent dye-containing media is removed and replaced with PBS (phosphate buffered saline) and each well was assayed for fluorescence.
This assay is a model for septic shock. L929 cells (10^5) were treated with human TNF-α at 300 pg/ml in RPMI media containing 10% fetal calf serum with or without compound no. One day later, the cells were stained for viability using the fluorescent dye BCECF and fluorescence of the samples was analyzed using a Milipore plate reader.

A further data set relates to PAPH. Briefly: inhibition of PAPH / DAG formation in specific activation pathway. Format: biochemical, human. As to conditions: specific activation pathway that does not involve PI. The text has this: The compounds and pharmaceutical compositions of the invention include inhibitors of subspecies of LPAAT and PAPH enzymes with substrate specificity for intermediates with 1,2-diunsaturated and 1-alkyl, 2-unsaturated subspecies. One representative example of such an inhibitor (although not within the genus of inventive compounds) is PTX. […] It should be emphasized that the compounds of the invention affect that subset of PAPH and LPAAT that relates to substrates with unsaturated fatty acids other than arachidonate in the sn-2 position, not the housekeeping forms of these enzymes that serve the PI pathway.
(§1) One in vitro assay measures inhibition of the relevant enzymes lysophosphatidic acid acyltransferase (LPAAT) and phosphatidic acid phosphoryl hydrolase (PAPH). […] It is important to note that the assay method permits discrimination between various forms of PA and DAG so that those relevant to the pathway affected by the (R) or (S) compounds of the invention can be measured directly. […] Thus, the relevant unsaturated (non-arachidonic) PA and DAG subspecies may be detected. […]

The subject of another data set is LPAAT. Briefly: formation of remodeled PA at LPAAT. Format: biochemical.
Source text: Even in the presence of PTX, cells continue to form PA through the action of PLD, and DAG is also formed through the action of phospholipase C on PC and PI. The latter pathway are not inhibited by the inventive compounds or PTX. In PTX-treated cells, DAG derived from remodeled and PLA-generated PA is diminished (e.g., 1,2-sn-dioleoyl DAG, 1-alkyl, 2-linoleoyl DAG and 1-alkyl, 2-docosahexaneolyl DAG). Therefore, the inventive compounds and PTX inhibit the formation of only a certain species of PA and DAG by selectively inhibiting a specific second messenger pathway that is only activated in cells by noxious stimuli, but is not used to signal normal cellular housekeeping functions.
as §1

Data set [1] deals with ras transformation in NIH/3T3 cells. The data set is described as follows: generation of DAG and PA in ras-transformed NIH/3T3 cells. Format: cell-based. Conditions: pretreatment of cells; 4-12 hours. From the text:
For example, activating ras mutations result in increased generation of DAG upon stimulation with mitogens, although the sources of DAG differ between experimental systems. In nontransformed renal mesangial cells, IL-1β stimulation increased PLA2 and LPAAT activation, resulting in generation of sn-2 unsaturated PA and subsequent hydrolysis to DAG by phosphatidate phosphohydrolase. The ras transformation in NIH/3T3 cells upregulates serum-stimulated generation of DAG and PA. Particular species of DAG that is stimulated by serum is dioleoyl and of PA are dilinoleoyl and dioleoyl. […] The inhibition occurs either through suppressing the generation of PA de novo from lysoPA, or through inhibition of one or both arms of the Lands cycle. […] Therefore, the ras transformation mediates an upregulation of PA through indirect stimulation of PLA2 and/or LPAAT activity.

The subject of data set [2] is ras-transformed NIH/3T3 cells.
Data set [3] deals with polymorphonuclear leukocytes. Conditions: cited from earlier work.
For data set [4], the system named is tumor necrosis factor (TNF). Conditions: normal volunteers; cited from earlier work.

Molecules are shown by their SMILES.

`CC(=O)CCCCn1c(=O)c2c(ncn2C)n(C)c1=O` [PTX, 1-(5-oxohexyl)-3,7-dimethylxanthine]: the “protection of L929 cells from TNF-induced cytotoxicity” value in the data set on L929 cells is listed as “inhibited TNF-induced cytotoxicity in a dose dependent manner”. Besides, the “blocking of PAPH” value in the data set with PAPH was “blocks PAPH in a specific activation pathway”. Further, in the data set on LPAAT (PTX-treated cells), the “DAG derived from remodeled and PLA-generated PA” value is “diminished”. Moreover, the “formation of remodeled PA” value in the data set on LPAAT (in vitro, high PTX concentrations) is given as “blocks formation of remodeled PA through the PA/DAG pathway at high PTX concentrations”. Besides, in data set [1], the “generation of phospholipid second messengers (DAG, PA)” value is “blocks generation of these phospholipid second messengers”. Moreover, in data set [2], the “inhibition of ras-transformed NIH/3T3 cells relative to parental cells” value is recorded as “inhibits ras-transformed NIH/3T3 cells more than parental cells”; the “reversibility / cytotoxicity of inhibition” value was “reversible and is not associated with significant cytotoxicity”. Besides, in data set [3] (U.S. Pat. Nos. 4,965,271 and 5,096,906), the “inhibition of cytokine activity to affect chemotaxis” value was “inhibit activity of certain cytokines to affect chemotaxis”. Moreover, in data set [3] (in response to a stimulator of chemotaxis, U.S. Pat. No. 4,636,507), the “stimulation of chemotaxis in polymorphonuclear leukocytes” value is on record as “stimulate chemotaxis in polymorphonuclear leukocytes”. Moreover, in data set [4], the TNF levels entry is “TNF levels were higher among PTX recipients”.
